≈ marks a conversion by molar mass, not a printed value.

For the series the following is noted: buffer; pH 7.4; 200.0 µM.
As usually defined, the solubility (kinetic) is the concentration staying in solution when a stock, usually in DMSO, is diluted into the medium. With `Cc1ccc(-c2csc(NC(=O)c3cccc(C)c3)c2C(=O)O)cc1`, the solubility (kinetic) is more than 52.7 µg/mL.
Consider `Brc1ccc(CNCC2CCCO2)cc1` (stereo unspecified), for which the kinetic solubility worked out at 33.9 µg/mL (≈ 125 µM).
With `COCc1cc(=O)[nH]c(N2CCN(c3ccccc3OC)CC2)n1`, the solubility (kinetic) was found to be 46.3 µg/mL (≈ 140 µM).
For `CCCCn1c(N)c(N(CCOC)C(=O)CN(C)CC(=O)Nc2ccc(Cl)c(Cl)c2)c(=O)[nH]c1=O` the value was more than 79.4 µg/mL; for `Cn1c(SCC(=O)Nc2sccc2C(N)=O)nc2ccccc2c1=O`, 3.8 µg/mL (≈ 10.1 µM).
Turning to `CC1CN(C(=O)COc2ccc3ccccc3c2)CC(C)O1` (stereo unspecified), the kinetic solubility is more than 44.9 µg/mL.
For `CCCn1c(=O)c(C(=O)Nc2cc(C)ccn2)c(O)c2ccccc21` the value was less than 0.2 µg/mL; for `COc1ccc(C(=O)NC(CCSC)C(=O)NC2CC2)cc1` (stereo unspecified), more than 48.4 µg/mL; for `Cc1ccc(C(=O)NCCC(=O)Nc2ccccc2C)cc1`, more than 44.5 µg/mL.
As for `CC(C)CC(=O)N1CCN(Cc2ccccc2Br)CC1`, the figure is 42 µg/mL (≈ 124 µM); as for `O=C(COc1ncnc2sccc12)Nc1ccc(F)cc1F`, more than 48.2 µg/mL.
`CCc1ccc(-c2cnc3nc[nH]c(=O)c3n2)cc1` displayed a solubility (kinetic) of more than 37.8 µg/mL.
`Cc1ccc(S(=O)(=O)N2CCC(=O)CC2)cc1`: the solubility (kinetic) is more than 38 µg/mL.
As for `COc1ccc(CNC(=O)Cn2ccc([N+](=O)[O-])n2)cc1OC`, the figure is more than 48 µg/mL; as for `COc1ccc(-c2csc(Nc3cccc(C)n3)n2)cc1`, less than 0.2 µg/mL; as for `CC(=O)Nc1ccccc1`, more than 20.3 µg/mL.
The molecule `CN(CC(=O)NCCc1ccccc1)CC(=O)Nc1cccc(F)c1` came in with a kinetic solubility of more than 51.5 µg/mL.
In the case of `CC(C)CNC(=O)[C@H](Cc1ccccc1)NC(=O)c1cccs1`, the kinetic solubility was 9.6 µg/mL (≈ 29.1 µM).
`O=C(COC(=O)/C=C/c1cccc([N+](=O)[O-])c1)NCc1ccco1` registered a solubility (kinetic) of 18.5 µg/mL (≈ 56 µM). This solubility kinetic is about 1.9-fold higher than that of the molecule before.
For `Cc1nn(CC(=O)NC2(C)CCS(=O)(=O)C2)c(C)c1S(=O)(=O)N(C)C` (stereo unspecified) the value was more than 58.9 µg/mL.
As for `CCc1nnc(NC(=O)C2CC(=O)N(Cc3ccccc3)C2)s1` (stereo unspecified), the figure is more than 49.6 µg/mL.
For `O=C(O)c1cc(=O)[nH]c2c(Cl)cccc12` the value was more than 33.5 µg/mL; for `NC(=O)C1CCN(S(=O)(=O)Cc2ccccc2Cl)CC1`, more than 47.5 µg/mL; for `CCc1cccc(C)c1N1C(=O)CC(C)(C)CC1=O`, more than 38.9 µg/mL.
In the case of `COc1cc(CNc2ncnc3c2[nH]c2ccc(C)cc23)cc(OC)c1`, the kinetic solubility came to 0.7 µg/mL (≈ 2.01 µM).
For `CCC1Oc2ccccc2N(CC(=O)N2CCOCC2)C1=O` (stereo unspecified) the value was more than 45.7 µg/mL.
On to `Cc1ccc(C)c(C(C)NC(=O)C2CC=CCC2C(=O)O)c1` (stereo unspecified), for which the kinetic solubility was more than 45.2 µg/mL.
`O=C(c1cccnc1)N1N=C2CCCCCC2C1(O)C(F)(F)F` (stereo unspecified) showed a kinetic solubility of more than 49.1 µg/mL.
`O=C(CCN1C(=O)c2ccccc2C1=O)NCc1ccccc1` came in with a kinetic solubility of more than 46.3 µg/mL.
In the case of `COc1ccc(N2C(=O)NC3CC2(C)Oc2ccccc23)cc1` (stereo unspecified), the kinetic solubility turned out to be 44.4 µg/mL (≈ 143 µM).
For `O=C(Nc1ccsc1C(=O)O)c1cccc(Oc2ccccc2)c1` the value was 43.2 µg/mL (≈ 127 µM).
In the case of `COC(=O)c1cn(CC(=O)Nc2ccccc2C)c2ccccc12`, the solubility (kinetic) was found to be 0.4 µg/mL (≈ 1.24 µM).
`COc1ccc(-c2cc(=O)oc(-c3cccc(C)c3)n2)cc1` registered a kinetic solubility of 1.1 µg/mL (≈ 3.75 µM).
As for `C=CCn1c(O)c(C=Nc2c(C)n(C)n(-c3ccccc3)c2=O)c(=O)[nH]c1=O`, the figure is more than 57.2 µg/mL; as for `COCCOC(=O)C(CC(=O)O)NCc1ccco1` (stereo unspecified), more than 40.7 µg/mL; as for `Cc1ccc(C)c(C(=O)Nc2ccncc2)c1`, more than 33.9 µg/mL.
For `COc1cc(CO)ccc1Oc1nc2ccccc2n2cnnc12` the value was more than 48.3 µg/mL; for `O=C(COc1ccc(Cl)cc1)NCCNC(=O)c1ccccn1`, 47.6 µg/mL (≈ 143 µM); for `CC1CCN(C(=O)COC(=O)/C=C/c2ccco2)CC1`, more than 41.6 µg/mL.
For `CN(C)Cc1ccc(CNC(=O)COc2ccc3ccccc3c2)cc1`, the kinetic solubility was determined as 44.7 µg/mL (≈ 128 µM).
Molecule `CC(=O)C1=C(O)C(=O)N(CCO)C1c1ccccc1` (stereo unspecified) registered a solubility (kinetic) of more than 39.2 µg/mL.
As for `O=C(Nc1ccc(F)cc1)c1cc(Cl)sc1Cl`, the solubility (kinetic) is 1.9 µg/mL (≈ 6.55 µM).
`CC1CCCC(C)N1C(=O)COC(=O)Cc1ccc(Cl)cc1` (stereo unspecified) showed a solubility (kinetic) of more than 48.6 µg/mL.
For `COC(=O)c1scc(S(=O)(=O)c2ccccc2)c1N` the value was 1.9 µg/mL (≈ 6.39 µM); for `CC1CCCC(C)N1C(=O)COC(=O)/C=C/c1ccco1` (stereo unspecified), 10 µg/mL (≈ 34.3 µM); for `O=c1cc(/N=C/c2coc3cc(Br)ccc3c2=O)[nH]c(=S)[nH]1`, 3 µg/mL (≈ 7.93 µM).
For `CCc1ccc(NC(=O)CCCN2C(=S)NC(C)(C)CC2C)cc1` (stereo unspecified) the value was 38.7 µg/mL (≈ 111 µM); for `CNC(=S)Nc1cc(C(=O)N2CCCC2)ccc1N1CCCC1`, more than 49.9 µg/mL; for `O=C(Nc1ccccc1)N1CCCN(c2nccc(C(F)(F)F)n2)CC1`, 1.7 µg/mL (≈ 4.65 µM).
As for `O=C(OCCN1CCOCC1)c1ccc(O)cc1`, the figure is more than 37.7 µg/mL; as for `Cc1cc(C)cc(NC(=O)c2ccc([N+](=O)[O-])o2)c1`, 8.3 µg/mL (≈ 31.9 µM).

(Values after PubChem BioAssay AID1996.)
